Values quoted from earlier work in patent US20230203322A1, “NON-ABLATIVE MULTI-LAYER COATINGS FOR BOAT PROPELLERS THAT PREVENT WATER-DERIVED DAMAGE, CORROSION, AND DETERIORATION FROM BIOLOGICAL CHEMICAL PROCESSES” (priority 2021, published 2023).

What was measured:
barnacles = conditions: copper release
[1] = tested on: biofouling animal organisms

SMILES	minimal effective rate known to be effective for eradicating barnacles (barnacles)	effect on biofouling animal organisms ([1]; by itself)	synergistic enhancement of the biofouling anti-proliferating effect of copper and its alloys and salts ([1]; used in combination with the copper containing-substance)
[Cu] [copper]	4 × 10^-6 micrograms per cm^2 per day		
[O]=[Zn] [zinc oxide]		only a weak effect	up to 200 times
